# Legend:
# Assay type in all cases: cell-based
# [1] = tested on: Thrombospondin mRNA in human coronary artery smooth muscle cells (CASMC); assay: Thrombospondin mRNA in CASMC; details: for IC50: Homo sapiens
# Procedure: (§1) Primary culture of human coronary artery smooth muscle cells (CASMC) (commercially available from Cambrex, Walkersville, Md.) were grown in smooth muscle growth medium SmGM-2 (commercially available from Lonza Bioscience) containing 5.5 mM glucose, 5% FBS, 50 μg/ml gentamicin, 50 ng/ml amphotericin-B, 5 μg/ml insulin, 2 ng/ml human recombinant fibroblast growth factor (hFGF), and 0.5 ng/ml human recombinant epidermal growth factor (hEGF) at 37° C. in a humidified 5% CO2-95% air atmosphere. Cells were grown to >80% confluence and used within five passages.
# (§2) Real-time reverse transcription-PCR was performed with a MyiQ Real-Time PCR Detection System (BioRad, Hercules, Calif.). Each sample has a final volume of 25 μl containing 100 ng of cDNA, […] each of the forward and reverse PCR primers and […] of the TaqMan™ probe for the gene of interest (Applied Biosystems, Foster City, Calif.). Temperature conditions consisted of a step of 5 minutes at 95° C., followed by 40 cycles of 60° C. for 1 minute and 95° C. for 15 seconds. Data was collected during each extension phase of the PCR reaction and analyzed with the software package (BioRad, Hercules, Calif.). Threshold cycles were determined for each gene. […]
# [2] = tested on: VDR (VDRE-luciferase-reporter construct); assay: VDRE Reporter Gene Assay in HEK cells with stable expression of VDR; details: Homo sapiens, HEK293, 24 hours
# Procedure: Compound activity was also assessed by looking at a Vitamin D Response Element (VDRE) reporter gene assay, Human Embryonic Kidney cells (HEK cells) with a stable expression of VDR were cultured in 96-well plates at ˜4×10^5 cells/mL (100 μL/well) in DMEM medium containing 10% fetal calf serum. Cells were transfected with 0.2 μg per well of a VDRE-luciferase-reporter construct (from Y. Li, University of Chicago) and then treated with test agents at indicated concentrations for 24 hours. The luciferase activity was then measured following the manufacturer's instructions (Promega, Madison, Wis.).
# [3] = tested on: Thrombomodulin mRNA in human coronary artery smooth muscle cells (CASMC); assay: Thrombomodulin mRNA in CASMC; details: for EC50: Homo sapiens
# Procedure: as §1, §2
# [4] = tested on: Human promyelocytic leukemia (HL60) cells; assay: HL-60 Differentiation; details: HL-60, 96 h, four days incubation, NBT, absorbance 570 nm
# Procedure: Human promyelocytic leukemia (HL60) cells were obtained from the American Type Culture Collection (ATCC Cat. # CCL-240, Manassas, Va.). Cells were maintained in RPMI 1640 medium (commercially available from Invitrogen, Carlsbad, Calif.) containing 10% fetal bovine serum (commercially available from Invitrogen, Carlsbad, Calif.) at 37° C. with 5% CO2. Cells were passaged weekly and were not allowed to become >90% confluent. For the assay, cells were plated at 5×10^5 cells per well in 200 uL media. Test compounds were diluted in media in concentrations between 10^−6-10^−10 M and then added to the appropriate wells. Cells were then incubated for four days at 37° C. in 5% CO2 atmosphere. After incubation, media was aspirated from each well and 75 uL of NBT solution (nitroblue tetrazolinium: 200 ng/mL PMA (phorbol 12-myrystate 13-acetate) and 2 mg/ml NBT (nitroblue tetrazolium) in distilled H2O) was added to each well followed by further incubation for 2 hours at 37° C. Following incubation, 150 uL lysis buffer (225 mL dimethylformamide, 67.5 g SDS). PMA stock solution (2 mg/ml in ethanol) was added to each well and the plate was allowed to sit at room temperature for 4 hours. HL-60 cell differentiation was assayed, Effect of each compound on cell growth was examined as a function of time; absorbance in each well was measured at 570 nm.
# [5] = tested on: Renin mRNA in As4.1 cells; assay: Renin mRNA in As4.1 cells transfected with pcDNA-hVDR (real-time RT-PCR)
# Procedure: As4.1 cells (ATCC, Manassas, Va.) were cultured in Dulbecco's Modified Eagle Medium DMEM (commercially available from Invitrogen, Carlsbad, Calif.) with 10% fetal bovine serum at 37° C. in a humidified 5% CO2-95% air atmosphere. C3;ells were transfected with the pcDNA-hVDR plasmid (provided by Yan Chun Li, University of Chicago) by LIPOFECTAMINE™ 2000 (Invitrogen, Carlsbad, Calif.). siRNA was transfected with the pcDNA-hVDR plasmid by LIPOFECTAMINE™ 2000 according to the manufacturer's protocol. Twenty-four hours after transfection, cells were treated with test agents.
# Real-time reverse transcription-PCR was performed with a MyiQ Real-time PCR Detection System (commercially available from BioRad, Hercules, Calif.). […] TaqMan™ probes that were 5′ labeled with the reporter 6-carboxyfluorescein (FAM) and 3′ labeled with the quencher tetramethylrhodamine (TAMRA) were used and the primer and probe sets were obtained from Applied Biosystems (Foster City, Calif.). Temperature conditions consisted of a step of 5 minutes at 95° C., followed by 45 cycles of 60° C. for 1 minute and 95° C. for 15 seconds. Data was collected during each extension phase of the PCR reaction and analyzed with the accompanying software package (BioRad, Hercules, Calif.). Threshold cycles were determined for each gene.
# [6] = tested on: PAI-1 mRNA in human coronary artery smooth muscle cells (CASMC); assay: PAI-1 mRNA in CASMC; details: for IC50: Homo sapiens
# Procedure: as §1, §2
smiles,measurement,setting,value
"C=C1[C@H](O)CC(=C/C=C2\CCC[C@]3(C)[C@@H]([C@H](C)COC(=O)C(C)(C)OC(C)=O)CC[C@@H]23)C[C@H]1O [Example 6, (2S)-2-[(1R,3R,7E,17β)-1,3-dihydroxy-2-methylene-9,10-secoestra-5,7-dien-17-yl]propyl 2-(acetyloxy)-2-methyl propanoate]",IC50,[1],1.3 nM
same,EC50,[2],1.3 nM
same,Thrombomodulin mRNA in CASMC EC50,[3],inactive
same,EC50,[4],12 nM
same,IC50,[5],18.6 nM
same,PAI-1 mRNA in CASMC IC50,[6],inactive
"C=C1[C@H](O)CC(=C/C=C2\CCC[C@]3(C)[C@@H]([C@H](C)CC[C@H](C)C(C)C)CC[C@@H]23)C[C@H]1O [Example 7, (1R,3R,7E)-2-methylene-17-[(1R,4S)-1,4,5-trimethylhexyl]-9,10-secoestra-5,7-diene-1,3-diol]",IC50,[1],0.1 nM
same,EC50,[2],12.2 nM
same,EC50,[3],0.6 nM
same,EC50,[4],12.5 nM
same,IC50,[5],0.1 nM
same,IC50,[6],0.1 nM
"C=C1[C@H](O)CC(=C/C=C2\CCC[C@]3(C)[C@@H]([C@H](C)OCCC(C)(C)O)CC[C@@H]23)C[C@H]1O [Example 8, (1R,3R,7E,17β)-17-[(1S)-1-(3-hydroxy-3-methylbutoxy)ethyl]-2-methylene-9,10-secoestra-5,7-diene-1,3-diol]",IC50,[1],0.05 nM
same,EC50,[2],< 0.01 nM
same,EC50,[3],39.3 nM
same,EC50,[4],31.5 nM
same,IC50,[5],0.3 nM
same,IC50,[6],0.02 nM
"CC(C)[C@@H](C)CC[C@@H](C)[C@H]1CC[C@H]2/C(=C/C=C3C[C@@H](O)C[C@H](O)C3)CCC[C@]12C [Example 9, (1R,3R,7E)-17-[(1R,4S)-1,4,5-trimethylhexyl]-9,10-secoestra-5,7-diene-1,3-diol]",IC50,[1],0.3 nM
same,EC50,[2],> 10000 nM
same,EC50,[3],0.1 nM
same,EC50,[4],434 nM
same,Renin mRNA in AS4.1 IC50,[5],inactive
same,IC50,[6],0.1 nM
"C=C1/C(=C\C=C2/CCC[C@]3(C)[C@@H]([C@H](C)C(C[C@@H](C)C(C)(C)OC)OC)CC[C@@H]23)C[C@@H](O)C[C@@H]1O (stereo partly drawn) [Example 10, (1S,3R,5Z,7E,24R)-22,25-dimethoxy-9,1 0-secoergosta-5,7,10-triene-1,3-diol]",IC50,[1],0.01 nM
same,EC50,[2],150 nM
same,EC50,[3],0.2 nM
same,EC50,[4],621 nM
same,IC50,[5],3.9 nM
same,IC50,[6],0.04 nM
"COC(C[C@@H](C)C(C)(C)OC)[C@@H](C)[C@H]1CC[C@H]2/C(=C/C=C3C[C@@H](O)C[C@H](O)C3)CCC[C@]12C (stereo partly drawn) [Example 11, (1R,3R,7E,17β)-17-[(1S,4R)-2,5-dimethoxy-1,4,5-trimethylhexyl]-9,10-secoestra-5,7-diene-1,3-diol]",IC50,[1],0.01 nM
same,EC50,[2],182 nM
same,EC50,[3],28.4 nM
same,EC50,[4],310 nM
same,IC50,[5],0.002 nM
same,IC50,[6],0.01 nM
"C=C1[C@H](O)CC(=C/C=C2\CCC[C@]3(C)[C@@H]([C@H](C)COc4ccccc4)CC[C@@H]23)C[C@H]1O [Example 12, (1R,3R,7E,17β)-2-methylene-17-[(1S)-1-methyl-2-phenoxyethyl]-9,10-secoestra-5,7-diene-1,3-diol]",IC50,[1],0.02 nM
same,EC50,[2],16.9 nM
same,EC50,[3],0.1 nM
same,EC50,[4],0.2 nM
same,IC50,[5],0.2 nM
same,IC50,[6],11.5 nM
"C=C1[C@H](O)C/C(=C/C=C2\CCC[C@]3(C)[C@@H]([C@H](C)CCCC(C)(C)O)CC[C@@H]23)C[C@@H]1F [Example 13, (1R,3S,5Z,7E,17β)-3-fluoro-17-[(1R)-5-hydroxy-1,5-dimethylhexyl]-2-methylene-9,10-secoestra-5,7-dien-1-ol]",IC50,[1],0.03 nM
same,EC50,[2],276 nM
same,EC50,[3],80.2 nM
same,EC50,[4],52 nM
same,IC50,[5],0.9 nM
same,IC50,[6],0.01 nM
"C=C1[C@H](O)CC(=C/C=C2\CCC[C@]3(C)[C@@H]([C@H](C)COC(=O)C(C)(C)O)CC[C@@H]23)C[C@H]1O [Example 14, (2S)-2-[(1R,3R,7E,17β)-1,3-dihydroxy-2-methylene-9,10-secoestra-5,7-dien-17-yl]propyl 2-hydroxy-2-methylpropanoate]",IC50,[1],0.02 nM
same,EC50,[2],0.6 nM
same,EC50,[3],5.1 nM
same,EC50,[4],9 nM
same,IC50,[5],0.03 nM
same,IC50,[6],0.04 nM
"C[C@H](CC[C@@H](C)C(C)(C)O)[C@H]1CC[C@H]2/C(=C/C=C3C[C@@H](O)C[C@H](O)C3)CCC[C@]12C [Example 15, (1R,3R,7E,17β)-17-[(1R,4R)-5-hydroxy-1,4,5-trimethylhexyl]-9,10-secoestra-5,7-diene-1,3-diol]",Thrombospondin mRNA in CASMC IC50,[1],inactive
same,EC50,[2],0.4 nM
same,EC50,[3],10.7 nM
same,EC50,[4],1.2 nM
same,IC50,[5],0.04 nM
same,IC50,[6],0.01 nM
"C=C1[C@H](CO)C/C(=C\C=C2/CCC[C@]3(C)[C@@H]([C@H](C)CCCC(C)(C)O)CC[C@@H]23)C[C@H]1O [Example 16, (1R,3R,5E,7E,17β)-17-[(1R)-5-hydroxy-1,5-dimethylhexyl]-3-(hydroxymethyl)-2-methylene-9,10-secoestra-5,7-dien-1-ol]",EC50,[2],71.7 nM
same,EC50,[4],43 nM
same,IC50,[5],14.7 nM
"C=C1[C@H](CO)C/C(=C\C=C2/CCC[C@]3(C)[C@@H]([C@H](C)OCCC(C)(C)O)CC[C@@H]23)C[C@H]1O [Example 17, (1R,3R,5E,7E,17β)-3-(hydroxymethyl)-17-[(1S)-1-(3-hydroxy-3-methylbutoxy)ethyl]-2-methylene-9,10-secoestra-5,7-dien-1-ol]",EC50,[2],153 nM
same,EC50,[4],92.5 nM
same,IC50,[5],2.2 nM
"C=C1[C@H](O)C/C(=C\C=C2/CCC[C@]3(C)[C@@H]([C@H](C)CCCC(C)(C)O)CC[C@@H]23)C[C@@H]1F [Example 18, (1R,3S,5E,7E,17β)-3-fluoro-17-[(1R)-5-hydroxy-1,5-dimethylhexyl]-2-methylene-9,10-secoestra-5,7-dien-1-ol]",EC50,[2],11.3 nM
same,EC50,[4],10 nM
same,IC50,[5],0.1 nM
